Among the data in US10316017B2, “COT modulators and methods of use thereof” (Gilead Sciences, Inc., priority 2015, dated 2019) are IC50 and EC50 values, retold here.

Assay [1] deals with T1, human Cot catalytic domain (30-397 amino acids) (Homo sapiens, UniProt P41279).
T1 construct: Purified recombinant human Cot catalytic domain (30-397 amino acids) was purchased from Cama Biosciences; purchased Cama Biosciences (so in the source)
In words: High Throughput Cot Biochemical Assay (KinEASE TR-FRET). The following applies: Cot biochemical HTRF (KinEASE TR-FRET) assay; read-out: IC50 HTRF. In short, it runs like this: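 Recombinant human Cot catalytic domain (aa 30-397), 5 nM, with 1 μM STK3 peptide and 400 μM ATP in MOPS pH 7.0 buffer with MgOAc, DTT, BSA, NP-40, glycerol, 0.1% DMSO. Phosphorylated XL665-peptide detected by Eu-[…] antibody TR-FRET.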
(TR-FRET usually uses a lanthanide donor and a delayed reading to cut background.)

For assay [2], the system named is TNFα production in LPS-stimulated human monocytes. Put plainly: Cot Monocyte TNFα Cell Based Assay. The following applies: Homo sapiens, Monocyte, TNFα in LPS-stimulated human monocytes; read-out: EC50 TNF. In short, it runs like this:
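Human monocytes (5,000 cells/well) pretreated with compound for 1 hour at 37° C (0.5% DMSO), then stimulated with 50 pg/ml LPS for 4 hours. Total TNFα measured by TR-FRET after overnight antibody incubation at room temp, expressed as percent of control between unstimulated and stimulated cells.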

T1 sequence (P41279 30-397): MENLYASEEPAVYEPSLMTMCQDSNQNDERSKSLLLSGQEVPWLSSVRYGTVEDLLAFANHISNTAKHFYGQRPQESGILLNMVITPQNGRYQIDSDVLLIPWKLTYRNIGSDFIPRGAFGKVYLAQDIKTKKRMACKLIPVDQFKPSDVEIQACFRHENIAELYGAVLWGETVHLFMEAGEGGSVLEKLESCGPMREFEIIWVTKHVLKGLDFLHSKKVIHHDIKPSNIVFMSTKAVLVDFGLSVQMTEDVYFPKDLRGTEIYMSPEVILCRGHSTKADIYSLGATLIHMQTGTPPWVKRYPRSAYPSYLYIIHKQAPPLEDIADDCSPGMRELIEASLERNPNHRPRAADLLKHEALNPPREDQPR

For orientation: IC50 means the concentration needed to halve the response being measured. The EC50 is the midpoint of the concentration-response curve. `CC(C)n1cc([C@@H](Nc2cc(Cl)c3ncc(C#N)c(Nc4cccc(Cl)c4F)c3c2)c2ccccc2)nn1` [Example 591, (S)-8-chloro-4-((3-chloro-2-fluorophenyl)amino)-6-(((1-isopropyl-1H-1,2,3-triazol-4-yl)(phenyl)methyl)amino) quinoline-3-carbonitrile]: the IC50 in assay [1] was 27 nM. In addition, the EC50 in assay [2] is 713 nM.
As for `CC[C@@H](Nc1c(C#N)cnc2c(Cl)cc(N[C@@H](c3ccccc3)c3cn(C(C)C)nn3)cc12)c1ccccc1` [Example 592, 8-chloro-6-(((S)-(1-isopropyl-1H-1,2,3-triazol-4-yl)(phenyl)methyl)amino)-4-(((R)-1-phenylpropyl)amino)quinoline-3-carbonitrile], in assay [1], the IC50 amounted to 7 nM. Besides, the EC50 in assay [2] was 352 nM.
Turning to `CC1CCN1C(=O)c1cccc([C@H](Nc2cc(Cl)c3ncc(C#N)c(Nc4ccc(F)c(Cl)c4)c3c2)c2cn(C3CCN(C(C)(C)C)CC3)nn2)c1` (stereo partly drawn) [Example 593, 6-(((1S)-(1-(1-(tert-butyl)piperidin-4-yl)-1H-1,2,3-triazol-4-yl)(3-(2-methylazetidine-1-carbonyl)phenyl)methyl)amino)-8-chloro-4-((3-chloro-4-fluorophenyl)amino)quinoline-3-carbonitrile], in assay [1], the IC50 was determined as 1 nM. In addition, the EC50 in assay [2] was 147 nM.
The corresponding values for `CC(C)(C)N1CCC(n2cc([C@@H](Nc3cc(Cl)c4ncc(C#N)c(Nc5ccc(F)c(Cl)c5)c4c3)c3cccc(C(=O)N4CC(O)C4)c3)nn2)CC1` [Example 594, (S)-6-(((1-(1-(tert-butyl)piperidin-4-yl)-1H-1,2,3-triazol-4-yl)(3-(3-hydroxyazetidine-1-carbonyl)phenyl)methyl)amino)-8-chloro-4-((3-chloro-4-fluorophenyl)amino)quinoline-3-carbonitrile] are 1 nM and 1720 nM.
The corresponding values for `CN(C)c1cccc([C@H](Nc2cc(Cl)c3ncc(C#N)c(Nc4ccc(F)c(Cl)c4)c3c2)c2cn(C3CCN(C(C)(C)C)CC3)nn2)c1` [Example 595, (S)-6-(((1-(1-(tert-butyl)piperidin-4-yl)-1H-1,2,3-triazol-4-yl)(3-(dimethylamino)phenyl)methyl)amino)-8-chloro-4-((3-chloro-4-fluorophenyl)amino)quinoline-3-carbonitrile] are 8 nM and 305 nM.
The corresponding values for `CC(C)(C)N1CCC(n2cc([C@@H](Nc3cc(Cl)c4ncc(C#N)c(NC5CC6CCC5C6)c4c3)c3ccccc3)nn2)CC1` (stereo partly drawn) [Example 596, 4-(bicyclo[2.2.1]heptan-2-ylamino)-6-(((S)-(1-(1-(tert-butyl)piperidin-4-yl)-1H-1,2,3-triazol-4-yl)(phenyl)methyl)amino)-8-chloroquinoline-3-carbonitrile] are 33 nM and 3050 nM.
In the case of `CC(C)(C)N1CCC(n2cc(C(Nc3cc(Cl)c4ncc(C#N)c(NC5CCC(O)CC5)c4c3)c3ccccc3)nn2)CC1` [Example 597, 6-(((S)-(1-(1-(tert-butyl)piperidin-4-yl)-1H-1,2,3-triazol-4-yl)(phenyl)methyl)amino)-8-chloro-4-(((1r,4S)-4-hydroxycyclohexyl)amino) quinoline-3-carbonitrile], in assay [1], the 50% inhibitory concentration (IC50) was found to be 189 nM. The EC50 in assay [2] was 3180 nM.
The corresponding values for `CC[C@@H](Nc1c(C#N)cnc2c(Cl)cc(N[C@@H](c3cccc(C(=O)N(C)C)c3)c3c[nH]nn3)cc12)c1ccccc1` [Example 598, 3-((S)-((8-chloro-3-cyano-4-(((R)-1-phenylpropyl)amino)quinolin-6-yl)amino)(1H-1,2,3-triazol-4-yl)methyl)-N,N-dimethylbenzamide] are 4 nM and 418 nM.
The corresponding values for `CC[C@@H](Nc1c(C#N)cnc2c(Cl)cc(N[C@@H](c3cccc(C(=O)N(C)C)c3)c3cn(C(C)C)nn3)cc12)c1ccccc1` [Example 599, 3-((S)-((8-chloro-3-cyano-4-(((R)-1-phenylpropyl)amino)quinolin-6-yl)amino)(1-isopropyl-1H-1,2,3-triazol-4-yl)methyl)-N,N-dimethylbenzamide] are 3 nM and 134 nM.
On the same counts, the results for `CC[C@@H](Nc1c(C#N)cnc2c(Cl)cc(N[C@@H](c3cccc(C(=O)N(C)C)c3)c3cn(C4CCN(C(C)(C)C)CC4)nn3)cc12)c1ccccc1` [Example 600, 3-((S)-(1-(1-(tert-butyl)piperidin-4-yl)-1H-1,2,3-triazol-4-yl)((8-chloro-3-cyano-4-(((R)-1-phenylpropyl)amino)quinolin-6-yl)amino)methyl)-N,N-dimethylbenzamide] are 2 nM and 78 nM.
Regarding `CC(C)(C)N1CCC(n2cc([C@@H](Nc3cc(Cl)c4ncc(C#N)c(NCC5CCOCC5)c4c3)c3ccccc3)nn2)CC1` [Example 601, (S)-6-(((1-(1-(tert-butyl)piperidin-4-yl)-1H-1,2,3-triazol-4-yl)(phenyl)methyl)amino)-8-chloro-4-(((tetrahydro-2H-pyran-4-yl)methyl)amino)quinoline-3-carbonitrile], the IC50 in assay [1] is 64 nM. For the same compound, the EC50 in assay [2] turned out to be 2060 nM.
As to `CC(C)(C)N1CCC(n2cc([C@@H](Nc3cc(Cl)c4ncc(C#N)c(NCC5CCCCC5)c4c3)c3ccccc3)nn2)CC1` [Example 602, (S)-6-(((1-(1-(tert-butyl)piperidin-4-yl)-1H-1,2,3-triazol-4-yl)(phenyl)methyl)amino)-8-chloro-4-chloro-4-((cyclohexylmethyl)amino) quinoline-3-carbonitrile], the IC50 in assay [1] was 77 nM. In assay [2], the EC50 was 3050 nM.
For `CC(C)(C)N1CCC(n2cc([C@@H](Nc3cc(Cl)c4ncc(C#N)c(NN5CCCCC5)c4c3)c3ccccc3)nn2)CC1` [Example 603, (S)-6-(((1-(1-(tert-butyl)piperidin-4-yl)-1H-1,2,3-triazol-4-yl)(phenyl)methyl)amino)-8-chloro-4-(piperidin-1-ylamino)quinoline-3-carbonitrile], in assay [1], the IC50 amounted to 61 nM. The EC50 in assay [2] was found to be 561 nM.
On the same counts, the results for `CC(C)(C)N1CCC(n2cc([C@@H](Nc3cc(Cl)c4ncc(C#N)c(NN5CCCCCC5)c4c3)c3ccccc3)nn2)CC1` [Example 604, (S)-4-(azepan-1-ylamino)-6-(((1-(1-(tert-butyl)piperidin-4-yl)-1H-1,2,3-triazol-4-yl)(phenyl)methyl)amino)-8-chloroquinoline-3-carbonitrile] are 156 nM and 3040 nM.
Take `N#Cc1cnc2c(Cl)cc(N[C@@H](c3ccccc3)c3cn(CC(O)C(F)(F)F)nn3)cc2c1Nc1ccc(F)c(Cl)c1` (stereo partly drawn) [Example 605, 8-chloro-4-((3-chloro-4-fluorophenyl)amino)-6-(((1S)-phenyl(1-(3,3,3-trifluoro-2-hydroxypropyl)-1H-1,2,3-triazol-4-yl)methyl)amino)quinoline-3-carbonitrile]: the half-inhibitory concentration (IC50) in assay [1] worked out at 41 nM. The EC50 in assay [2] was determined as 375 nM.
Take `CN(C)C(=O)c1cccc([C@H](Nc2cc(Cl)c3ncc(C#N)c(Nc4cccc(Cl)c4F)c3c2)c2c[nH]nn2)c1` [Example 606, (S)-3-(((8-chloro-4-((3-chloro-2-fluorophenyl)amino)-3-cyanoquinolin-6-yl)amino)(1H-1,2,3-triazol-4-yl)methyl)-N,N-dimethylbenzamide]: the IC50 in assay [1] was found to be 2 nM. Further, the EC50 in assay [2] is 348 nM.
